Assay results as given in patent publication US20210255193A1, “LYSINE REACTIVE PROBES AND USES THEREOF” (The Scripps Research Institute, priority 2017, published 2021).

Columns and labels:
Assay in all cases: competitive isoTOP-ABPP
Format in all cases: binding
[1] = target: T1, G6PD Glucose-6-phosphate 1-dehydrogenase (Homo sapiens, UniProt P11413)
T1 construct: isoTOP-ABPP experiments performed in cell lysates (in vitro); endogenous in cells; host or cells: MDA-MB-231 soluble lysate
Procedure, shortened: (§1)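 Readout: isotopic light/heavy MS1 peak-area ratio (R, DMSO heavy over compound light), median across peptides sharing a modified lysine. Lysate received fragment (activated esters 50 μM, guanidinylating agents 100 μM final) or DMSO, then 0.1 mM STP-alkyne probe for 1 h at ambient temperature.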

[2] = target: T2, GSTT2B Glutathione S-transferase theta-2B (Homo sapiens, UniProt P0CG30)
T2 construct: isoTOP-ABPP experiments performed in cell lysates (in vitro); endogenous in cells; host or cells: MDA-MB-231 soluble lysate
T2 sequence (P0CG30 1-244): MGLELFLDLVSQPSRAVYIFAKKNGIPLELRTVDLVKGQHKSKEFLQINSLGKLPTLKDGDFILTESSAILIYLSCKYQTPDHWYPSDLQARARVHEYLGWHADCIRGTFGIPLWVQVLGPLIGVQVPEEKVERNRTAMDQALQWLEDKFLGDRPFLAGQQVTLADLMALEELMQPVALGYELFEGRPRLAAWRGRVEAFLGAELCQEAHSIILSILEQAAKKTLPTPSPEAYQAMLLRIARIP
Procedure, shortened: as §1

[3] = target: T3, KIAA1967 DBIRD complex subunit KIAA1967 (Homo sapiens, UniProt Q8N163); conditions: for isoTOP-ABPP reactivity ratio at lysine Q8N163_K97 / isoTOP-ABPP reactivity ratio at lysine Q8N163_K112 / R value (DMSO/fragment) for probe 1 labeling: 231 sol
T3 construct: isoTOP-ABPP experiments performed in cell lysates (in vitro); endogenous in cells; host or cells: soluble proteome of human cancer cell lines (MDA-MB-231; Ramos and Jurkat also prepared)
Procedure, shortened: as §1

[4] = target: T4, PFKM 6-phosphofructokinase, muscle type (Homo sapiens, UniProt P08237)
T4 construct: isoTOP-ABPP experiments performed in cell lysates (in vitro); endogenous in cells; host or cells: MDA-MB-231 soluble lysate
T4 sequence (P08237 1-780): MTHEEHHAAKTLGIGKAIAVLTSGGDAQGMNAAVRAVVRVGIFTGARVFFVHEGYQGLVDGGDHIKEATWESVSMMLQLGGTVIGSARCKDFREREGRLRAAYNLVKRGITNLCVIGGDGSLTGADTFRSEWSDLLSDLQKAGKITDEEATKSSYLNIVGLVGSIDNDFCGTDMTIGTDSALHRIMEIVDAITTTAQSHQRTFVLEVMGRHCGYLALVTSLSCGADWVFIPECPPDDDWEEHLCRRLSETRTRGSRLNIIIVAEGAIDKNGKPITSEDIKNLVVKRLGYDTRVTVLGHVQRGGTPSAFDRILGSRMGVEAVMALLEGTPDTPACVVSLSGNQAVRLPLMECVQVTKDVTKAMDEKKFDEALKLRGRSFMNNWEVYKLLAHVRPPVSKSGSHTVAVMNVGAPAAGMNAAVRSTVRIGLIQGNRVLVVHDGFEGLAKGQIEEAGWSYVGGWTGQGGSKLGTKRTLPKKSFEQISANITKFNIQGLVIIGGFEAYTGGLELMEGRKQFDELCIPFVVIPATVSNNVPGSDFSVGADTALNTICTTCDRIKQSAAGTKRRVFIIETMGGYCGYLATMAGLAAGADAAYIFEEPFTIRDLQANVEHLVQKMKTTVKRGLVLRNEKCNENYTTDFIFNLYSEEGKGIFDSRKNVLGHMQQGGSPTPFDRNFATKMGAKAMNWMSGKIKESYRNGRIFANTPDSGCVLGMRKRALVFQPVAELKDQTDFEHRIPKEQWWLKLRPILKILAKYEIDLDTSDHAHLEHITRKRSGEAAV
Procedure, shortened: as §1

T3 sequence (Q8N163 whole entry, the tested form may be a part, one chain of several): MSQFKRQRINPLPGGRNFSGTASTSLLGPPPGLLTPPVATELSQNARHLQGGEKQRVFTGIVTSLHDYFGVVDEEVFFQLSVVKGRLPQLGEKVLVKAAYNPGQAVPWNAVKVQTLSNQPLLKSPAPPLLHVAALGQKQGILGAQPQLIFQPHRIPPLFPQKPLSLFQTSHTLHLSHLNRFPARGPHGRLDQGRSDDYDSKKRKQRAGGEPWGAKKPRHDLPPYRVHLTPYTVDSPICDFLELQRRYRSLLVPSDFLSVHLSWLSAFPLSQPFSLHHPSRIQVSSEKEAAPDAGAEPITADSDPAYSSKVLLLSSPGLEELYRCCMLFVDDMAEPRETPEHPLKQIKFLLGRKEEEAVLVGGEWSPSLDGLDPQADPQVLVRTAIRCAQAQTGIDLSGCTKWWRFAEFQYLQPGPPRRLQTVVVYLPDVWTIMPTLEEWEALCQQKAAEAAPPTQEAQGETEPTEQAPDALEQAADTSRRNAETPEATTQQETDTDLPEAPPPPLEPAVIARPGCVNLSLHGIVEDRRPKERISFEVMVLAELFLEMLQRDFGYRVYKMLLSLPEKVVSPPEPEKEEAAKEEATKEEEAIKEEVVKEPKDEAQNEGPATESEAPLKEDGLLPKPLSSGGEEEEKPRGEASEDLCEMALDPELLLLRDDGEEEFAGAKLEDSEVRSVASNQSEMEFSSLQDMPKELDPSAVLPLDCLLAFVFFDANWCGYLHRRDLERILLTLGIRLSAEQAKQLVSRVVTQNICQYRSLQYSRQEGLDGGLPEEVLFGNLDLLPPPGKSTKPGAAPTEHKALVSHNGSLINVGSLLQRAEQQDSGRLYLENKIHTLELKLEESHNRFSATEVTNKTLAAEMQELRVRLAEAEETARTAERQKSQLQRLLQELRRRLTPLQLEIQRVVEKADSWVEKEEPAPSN
T1 sequence (P11413 whole entry): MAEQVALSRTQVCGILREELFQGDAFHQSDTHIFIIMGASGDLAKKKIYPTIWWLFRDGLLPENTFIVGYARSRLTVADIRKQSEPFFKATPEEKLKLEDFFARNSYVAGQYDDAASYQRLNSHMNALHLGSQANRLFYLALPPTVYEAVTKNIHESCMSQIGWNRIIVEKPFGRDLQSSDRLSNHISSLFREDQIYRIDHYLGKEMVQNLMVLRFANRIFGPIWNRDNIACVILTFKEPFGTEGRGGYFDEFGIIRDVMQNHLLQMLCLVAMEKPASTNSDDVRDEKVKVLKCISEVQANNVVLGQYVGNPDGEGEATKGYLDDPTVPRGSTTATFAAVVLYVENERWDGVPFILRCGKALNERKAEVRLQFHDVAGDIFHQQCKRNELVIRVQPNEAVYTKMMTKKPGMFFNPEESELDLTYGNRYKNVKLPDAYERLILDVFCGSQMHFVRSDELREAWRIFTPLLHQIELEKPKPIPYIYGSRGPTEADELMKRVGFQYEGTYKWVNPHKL

Compound	isoTOP-ABPP reactivity ratio at lysine P11413_K171 ([1]; 50 uM, 231 sol, in vitro)	isoTOP-ABPP reactivity ratio at lysine P0CG30_K53 ([2]; 50 uM, 231 sol, in vitro)	isoTOP-ABPP reactivity ratio at lysine Q8N163_K97 ([3]; 50 uM, in vitro)	isoTOP-ABPP reactivity ratio at lysine Q8N163_K112 ([3]; 50 uM, in vitro)	isoTOP-ABPP reactivity ratio at lysine P08237_K678 ([4]; 50 uM, 231 sol, in vitro)	other results
NC(=O)c1cc(C(F)(F)F)cc(C(F)(F)F)c1 [fragment 51, reference compound]						isoTOP-ABPP ratio, lysine P11413_K171 ([1]; 50 uM_231_sol_in vitro): 0.9; isoTOP-ABPP ratio, lysine P0CG30_K53 ([2]; 50 uM_231_sol_in vitro): 0.7; isoTOP-ABPP ratio, lysine Q8N163_K97 ([3]; 50 uM_231_sol_in vitro): 0.8; isoTOP-ABPP ratio, lysine Q8N163_K112 ([3]; 50 uM_231_sol_in vitro): 0.8; isoTOP-ABPP ratio, lysine P08237_K678 ([4]; 50 uM_231_sol_in vitro): 0.8
O=C(CN1C(=O)c2ccccc2C1=O)Oc1c(F)c(F)c(F)c(F)c1F [fragment 27, Pentafluorophenyl 2-(1,3-dioxoisoindolin-2-yl)acetate]	0.9	0.9	0.9	1.2	2.6	
O=C(CCc1cn(-c2ccccc2)nc1-c1ccccc1)Oc1c(F)c(F)c(F)c(F)c1F [fragment 19, Pentafluorophenyl 3-(1,3-diphenyl-1H-pyrazol-4-yl)propanoate]						R value (DMSO/fragment) for probe 1 labeling ([1]; P11413_K171, 50 uM, 231 sol, in vitro): 0.9; R value (DMSO/fragment) for probe 1 labeling ([2]; P0CG30_K53, 50 uM, 231 sol, in vitro): 1.0; R value (DMSO/fragment) for probe 1 labeling ([3]; Q8N163_K97, 50 uM, in vitro): 0.9; R value (DMSO/fragment) for probe 1 labeling ([3]; Q8N163_K112, 50 uM, in vitro): 1.2; R value (DMSO/fragment) for probe 1 labeling ([4]; P08237_K678, 50 uM, 231 sol, in vitro): 1.0
COc1cc(CCC(=O)Oc2ccc([N+](=O)[O-])cc2[N+](=O)[O-])cc(OC)c1OC [fragment 33, 2,4-Dinitrophenyl 3-(3,4,5-trimethoxyphenyl)propanoate]	16.3	0.5	0.7	0.9	4.0	
O=C(Oc1ccc([N+](=O)[O-])cc1[N+](=O)[O-])C(c1ccccc1)c1ccccc1 [fragment 30, 2,4-Dinitrophenyl 2,2-diphenylacetate]	3.9	0.6	1.0	1.4	20.0	
O=C(Oc1ccc([N+](=O)[O-])cc1[N+](=O)[O-])c1cc(C(F)(F)F)cc(C(F)(F)F)c1 [fragment 31, 2,4-Dinitrophenyl 3,5-bis(trifluoromethyl)benzoate]	1.1	0.8	0.9	1.0	1.1	
O=C(CCc1cn(-c2ccccc2)nc1-c1ccccc1)Oc1ccc([N+](=O)[O-])cc1[N+](=O)[O-] [fragment 29, 2,4-Dinitrophenyl 3-(1,3-diphenyl-1H-pyrazol-4-yl)propanoate]	0.9	0.7	0.8	1.2	1.8	
CC(=O)Oc1ccc([N+](=O)[O-])cc1[N+](=O)[O-] [fragment 43, 2,4-Dinitrophenyl acetate]						isoTOP-ABPP ratio (R) at liganded lysine P11413_K171 ([1]; 50 uM, in vitro, sol, 231): 1.0; isoTOP-ABPP ratio (R) at liganded lysine P0CG30_K53 ([2]; 50 uM, in vitro, sol, 231): 0.6; isoTOP-ABPP ratio (R) at liganded lysine Q8N163_K97 ([3]; 50 uM, in vitro, sol, 231): 0.9; isoTOP-ABPP ratio (R) at liganded lysine Q8N163_K112 ([3]; 50 uM, in vitro, sol, 231): 1.0; isoTOP-ABPP ratio (R) at liganded lysine P08237_K678 ([4]; 50 uM, in vitro, sol, 231): 1.3
O=C(Oc1c(F)c(F)cc(F)c1F)c1cc(C(F)(F)F)cc(C(F)(F)F)c1 [fragment 48, 2,3,5,6-Tetrafluorophenyl 3,5-bis(trifluoromethyl)benzoate]						isoTOP-ABPP ratio, lysine P11413_K171 ([1]; 50 uM_231_sol_in vitro): 0.9; isoTOP-ABPP ratio, lysine P0CG30_K53 ([2]; 50 uM_231_sol_in vitro): 0.9; isoTOP-ABPP ratio, lysine Q8N163_K97 ([3]; 50 uM_231_sol_in vitro): 0.6; isoTOP-ABPP ratio, lysine Q8N163_K112 ([3]; 50 uM_231_sol_in vitro): 1.0; isoTOP-ABPP ratio, lysine P08237_K678 ([4]; 50 uM_231_sol_in vitro): 0.9
CC(C)(C)OC(=O)N=C(NC(=O)OC(C)(C)C)n1cccn1 [fragment 50, reference compound]						isoTOP-ABPP ratio, lysine P11413_K171 ([1]; 100 uM_231_sol_in vitro): 1.1; isoTOP-ABPP ratio, lysine P0CG30_K53 ([2]; 100 uM_231_sol_in vitro): 1.4; isoTOP-ABPP ratio, lysine Q8N163_K97 ([3]; 100 uM_231_sol_in vitro): 3.9; isoTOP-ABPP ratio, lysine Q8N163_K112 ([3]; 100 uM_231_sol_in vitro): 4.7; isoTOP-ABPP ratio, lysine P08237_K678 ([4]; 100 uM_231_sol_in vitro): 20.0
